Results from paper PMC10505102 (Cellular and Molecular Life Sciences: CMLS, 2023).
Where a SMILES comes first, the peptide text is derived from it. Bridges are numbered along the chain shown (N, C = ends).

Tests used:
[1] = system: PI3K/Akt signaling in wild-type C2C12 myotubes; test: Western blot of PI3K/Akt signaling; conditions: WT C2C12 myotubes; aM1 24 h; insulin 30 min
Method: C–D Data in each group were normalized with respect to GAPDH expression and stated as fold-change relative to PBS control cells for WT C2C12-myotubes (panel C) and IR C2C12-myotubes (panel D).
(§11) Each protein sample (30 µg) was resolved on a 10% acrylamide gel and transferred onto a PVDF membrane. Immunoblotting was performed using anti-protein antibodies and detected with an ECL system.

[2] = system: C2C12 cells; test: Glucose consumption assay (colorimetric); conditions: C2C12, 1 h; 20 µM aM1 (24 h pretreated) or 100 nM insulin; glucose assay kit, n = 3
Method: Glucose consumption was estimated by depleting glucose levels of the growth medium using a glucose assay kit. […] Relative glucose uptake was measured in wild-type (top) and insulin-resistant (bottom) C2C12-myotubes and 3T3-L1-adipocytes using a 2NBDG uptake assay to estimate the glucose consumption of cells treated with the respective compounds.
Glucose consumption was estimated by measuring the depletion of glucose levels in the growth medium over time. Glucose quantification was carried out using a glucose assay kit (Sigma, USA). […] After glucose introduction, glucose levels in the culture medium at 0 and 60 min were estimated colorimetrically at an absorbance wavelength of 570 nm. The protein content of each well was measured with a BCA protein assay to normalize glucose uptake results. Statistical significance was calculated based on three individual assays.

[3] = system: GLUT4; test: GLUT4 translocation assay (Myc-GLUT4-mCherry C2C12); assay type: cell-based, mouse; conditions: 20 μM aM1 24 h; 100 nM insulin 30 min
Source text: In skeletal muscles and adipocytes, insulin-induced glucose uptake is predominantly mediated by GLUT4 glucose transporters. […] We determined GLUT4-mediated glucose uptake using a stable C2C12 cell line expressing Myc-GLUT4-mCherry fusion protein that has a Myc epitope attached to the first N-terminal exofacial loop in GLUT4 and a mCherry fusion at the GLUT4 C terminus that allows detection of membrane-embedded GLUT4 under nonpermeabilized conditions (Fig. S6D).
The GLUT4 translocation assay was adapted from a published protocol. The pEGFP-myc-GLUT4-mCherry recombinant construct for GLUT4 fusion protein was generated using the pLenti-myc-GLUT4-mCherry plasmid (Addgene plasmid #64049). C2C12 cells were transfected with the recombinant plasmid using a Lipofectamine 3000 Transfection Kit (Thermo Scientific, USA). Stably transfected cells were selected and grown for further assays. […] The positive control group was treated with 100 nM insulin for 30 min, and the mock control was treated with PBS. After treatment, the culture medium was aspirated, and the cells were washed three times with PBS. Nonpermeabilized cells were immediately fixed with 10% formalin for 30 min, washed, and blocked with 1% BSA for 1 h at RT. After blocking, the cells were incubated with Alexa Fluor 488-conjugated c-Myc antibodies overnight at 4 °C. […]

[4] = system: PI3K/Akt signaling in wild-type 3T3-L1 adipocytes; test: Western blot of PI3K/Akt signaling; conditions: WT 3T3-L1 adipocytes
Method: as §11
Data in each g roup were normalized and expressed as a fold of PBS-
treated respective control cells. Each bar represents mean ± SD ( n=3, analysis of variance
(ANOVA) with Tukey's multiple comparisons test). *p<0.05 versus PBS-control groups and
#p<0.05 versus INS-treated groups.

[5] = system: Akt in insulin-resistant-C2C12 myotubes; test: Western blot of insulin-mediated Akt phosphorylation after aM1 pretreatment; conditions: IR myotubes, no aM1 pretreatment
Source text: A Relative insulin sensitivity in insulin-resistant (IR) myotubes and adipocytes. […] Glucose uptake of cells after insulin stimulation was quantified using a 2NBDG assay to estimate relative insulin sensitivity, which is expressed as the mean value (± SD) of three independent experimental replicates (analysis of variance (ANOVA) with Sidak's multiple comparisons test). *p < 0.05 compared to PBS control and ^#p < 0.05 compared to INS control. […] GAPDH served as a loading control. […] E RT-qPCR analysis of normal proximal insulin signaling genes in IR myotubes. […] Data are expressed as mean ± SEM (n = 4, ANOVA with Sidak's multiple comparisons test). *p < 0.05 versus control groups
as §11

[6] = system: IRS1/2 in insulin-resistant C2C12 myotubes; test: Western blot of IRS1/2 level and IRS1 phosphorylation; conditions: IR myotubes; insulin 30 min, with or without aM1 24 h pretreatment
Method: A Western blots showing the relative protein levels of IRS1/2 in insulin-resistant (IR.) C2C12-myotubes. […] B IRS1/2 gene expression analyzed by RT-qPCR under respective experimental conditions. Data for each group were normalized and represented the fold change relative to the PBS control group. […] Western blots of IRS1 at S318 (C) and S1101 D phosphorylation levels.
as §11

[7] = system: insulin-resistant 3T3-L1-adipocytes; test: 2-NBDG glucose uptake, fluorometric; assay type: cell-based, mouse; conditions: 20 µM aM1 or pioglitazone 24 h, 100 nM insulin 30 min
Method: 3T3-L1 cells were maintained in growth medium (high-glucose DMEM [Dulbecco's modified Eagle's medium; Gibco], 10% FBS (fetal bovine serum; Gibco) and 1% penicillin/streptomycin (Gibco)]). Confluent 3T3-L1 fibroblast cells were then incubated with MDI induction medium (1 μM dexamethasone, 0.5 mM IBMX (isobutylmethylxanthine), and 100 nM insulin in high-glucose DMEM containing 10% FBS. At 2 days post-confluence and 2 days after exposure to the MDI induction medium, the medium was replaced with 100 nM insulin containing high-glucose DMEM supplemented with 10% FBS. Thereafter, the medium was replaced with a growth medium every 2 days to maintain the cells in culture. Cells were maintained in a 100 nM insulin-containing growth medium for the insulin-resistant phenotype. Differentiation was confirmed with Oil Red to visualize lipid droplets (Fig. S13C). […]
Glucose uptake was measured using 2-NBDG, a fluorescently labeled deoxyglucose analog. […] Fluorometric quantification was performed using a microplate reader (Tecan Magellan™, Switzerland) with excitation and emission wavelengths of 467 nm and 542 nm, respectively. Protein content was measured with a BCA protein assay to normalize fluorometric results. […] Images were captured using the green fluorescence channel of a Nikon ECLIPSE Ti-S inverted microscope system (Nikon, Kanagawa, Japan). […]

[8] = system: 3T3-L1 cells; conditions: 3T3-L1, aM1 up to 100 µM, 24 h, n=3
Method: (§1) The MTT-containing culture medium was aspirated, and the formazan crystals were dissolved in DMSO for colorimetric quantification at 570 nm using a microplate reader (Tecan Magellan™, Switzerland) with a reference wavelength of 630 nm. DMSO was used as vehicle control, and 1% Triton X-100 was used as a cytotoxicity-inducing agent (positive control). Experimental triplicates were used for statistical analyses. […]
(§2) including an alkaline environment (ammonium bicarbonate buffer, pH 8) with trypsin (A) and chymotrypsin (B) and simulated gastric fluid (0.1N HCl, pH 1.2) with pepsin f or 4h at 37°C (C) and respective buffers were used as vehicle controls. Peptide quantif ication was perf ormed using RP-HPLC, and data are shown as mean (± SD), calculated from experimental triplicates.
(§3) 48h, and intact peptides were quantif ied using RP-HPLC. PBS was used as vehicle control.
(§4) Data are presented as mean (± SD), calculated from individual experimental triplicates. E) […]
(§5) Triton X 100 (TX -100) was used as a positive control f or cell death. (n=3, unpaired multiple t- […]
(§6) F) LDH release-based cytotoxicity and plasma membrane damaging analysis of […]
(§7) (n=3, unpaired multiple t-test with Holm-

[9] = system: HEPG2 cells; conditions: HEPG2, aM1 up to 100 µM, 24 h, n=3
Method: as §1, §2, §3, §4, §5, §6, §7

[10] = system: C2C12 cells; conditions: C2C12, aM1 up to 100 µM, 24 h, n=3
Method: as §1, §2, §3, §4, §5, §6, §7

[11] = system: CHO-K1 cells; conditions: concentrations up to 200 µM; cited from earlier work
[12] = system: mammalian cells; conditions: aM1 up to 100 µM, 24 h, n=3
Method: DMSO was used as the vehicle control. […]
as §2, §3, §4, §5, §6, §7

[13] = system: C2C12 myotubes, 3T3-L1 adipocytes, and HEPG2 cells; test: Glucose uptake with Akt inhibitor GSK690693; assay type: cell-based; conditions: 2.5 µM GSK690693 1 h; 20 µM aM1 24 h pretreated or 100 nM insulin 30 min
Method: (§8) The relative glucose uptake in each group is expressed as fold-change relative to the respective PBS-treated control groups.
(§9) Akt activation-mediated signaling was inhibited using the Akt-inhibitor GSK690693. Hydroxy-2-naphthalenylmethylphosphonic acid (HNMPA) was used to block insulin receptor activation. […] PBS was used for mock-treated groups. All experiments had at least three independent replicates.
(§10) Assays were performed in triplicate.

[14] = system: C2C12-myotubes, 3T3-L1-adipocytes, and HEPG2 cells; test: Glucose uptake with insulin receptor inhibitor HNMPA; assay type: cell-based; conditions: 100 µM HNMPA 1 h; 100 nM insulin 30 min
Method: as §8, §9, §10

Molecule: insulin
- total Akt expression [1]: no significant differences
- increase in glucose consumption compared to untreated control cells [2]: similar
- surface GLUT4 (anti-Myc fluorescence, nonpermeabilized cells) vs PBS control [3]: increased amounts of GLUT4 at the cell surface
- PDK1 phosphorylation at Ser242 [4]: significant increase
- total Akt expression [4]: no significant differences
- Akt phosphorylation at Ser473, increase relative to untreated cells ([4]; n=3): expected Akt phosphorylation was observed
- Akt phosphorylation at Thr308, increase relative to untreated cells ([4]; n=3): expected Akt phosphorylation was observed
- phosphorylated Akt levels after insulin stimulation alone [5]: remained at basal levels
- IRS1 phosphorylation at Ser318 [6]: increased significantly
- increase in glucose uptake relative to untreated cells [7]: remained at basal levels

Molecule: CC[C@H](C)[C@H](NC(=O)[C@@H]1CSSC[C@@H]2NC(=O)[C@@H]3CCCN3C(=O)[C@@H]3CCCN3C(=O)[C@H](C(C)C)NC(=O)[C@H](CCC(=O)O)NC(=O)[C@H](Cc3ccccc3)NC(=O)[C@@H]3CCCN3C(=O)[C@H](CO)NC(=O)[C@@H]3CSSC[C@H](NC(=O)[C@H](CCCNC(=N)N)NC(=O)[C@H](CSSC[C@H](NC(=O)[C@H](CC(=O)O)NC(=O)[C@@H](N)C(C)C)C(=O)N[C@@H](CO)C(=O)NCC(=O)N[C@@H](C)C(=O)N3)NC(=O)[C@H](CC(=O)O)NC(=O)[C@H](CCCNC(=N)N)NC(=O)[C@H](CO)NC(=O)CNC2=O)C(=O)N[C@@H]([C@@H](C)CC)C(=O)N2CCC[C@H]2C(=O)N[C@@H]([C@@H](C)CC)C(=O)NCC(=O)N[C@@H](CC(C)C)C(=O)N[C@@H](C(C)C)C(=O)N[C@@H](C(C)C)C(=O)NCC(=O)N[C@@H](Cc2ccccc2)C(=O)N1)C(=O)N[C@@H](Cc1ccc(O)cc1)C(=O)N1CCC[C@H]1C(=O)N[C@H](C(=O)NCC(=O)O)[C@@H](C)O [aM1] (H-VDCSGACSPFEVPPCGSRDCRCIPIGLVVGFCIYPTG-OH; disulfide 3-20, 7-22, 15-32)
- cell viability (MTT) [8]: No substantial changes in cell viability
- cell viability (MTT) [9]: No substantial changes in cell viability
- cell viability (MTT) [10]: No substantial changes in cell viability
- toxicity to CHO-K1 cells [11]: no toxicity
- LDH release (membranolytic or cytotoxic effects) [12]: no significant membranolytic or cytotoxic effects

Molecule: CCn1c(-c2nonc2N)nc2c(C#CC(C)(C)O)ncc(OC[C@H]3CCCNC3)c21 [GSK690693]
- insulin- and aM1-mediated glucose uptake on co-treatment with GSK690693 [13]: inhibited

Molecule: CCc1ccc(CCOc2ccc(CC3SC(=O)NC3=O)cc2)nc1 (stereo not drawn) [pioglitazone]
- increase in glucose uptake relative to untreated cells [7]: 1.6 fold

Molecule: O=P(O)(O)C(O)c1ccc2ccccc2c1 (stereo not drawn) [HNMPA, hydroxy-2-naphthalenylmethylphosphonic acid]
- insulin-mediated glucose uptake on HNMPA treatment [14]: completely blocked
